The values below come from US20120107835A1, “METHOD FOR DETECTING BETA-AMYLOID USING AMINO ACID DIMERS” (E[…] TELECOMM[…] INSTITUTE, priority 2010, published 2012).

No end group written: not given here. *: point of attachment. Biotin = O=C1N[C@H]2[C@H](CS[C@H]2CCCCC(=O)*)N1

For the experiment, the system named is causative β-amyloid (Aβ42). The experiment can be described thus: Sandwich ELISA detection of β-amyloid using biotinylated amino acid dimers instead of secondary antibody (absorbance at 450 nm). The note with it: Aβ40 vs Aβ42, dimer 100 μM, FIG. 2. It is filed as binding. The procedure:
Detection of β-amyloid was carried out using the biotinylated amino acid dimers prepared in Example 1, as follows.
Normal β-amyloid (Aβ40) and causative β-amyloid (Aβ42) were obtained from rPeptide (at Bogart, Ga., USA), and monoclonal antibodies specific for the β-amyloids(primary antibodies) were obtained from Covance (France). Each of the primary antibodies was mixed with sodium carbonate (pH 9.2) and the solution was added to a 96-well microplate for coating the wells (high-affinity F series, available from
NUNC, and then the microplate was washed with PBS or distilled water.
Meanwhile, each β-amyloid was dissolved in a sodium carbonate buffer (pH 9.4, Pierce) to a concentration of 1.0 mg/mL. For dilution, 100 μL of the β-amyloid solution was mixed with 9,900 μL of PBS. Each 200 μL of the resulting β-amyloid solution was dispensed into the wells of the 96-well microplate, and incubated for 4-hr at a room temperature so that β-amyloid binds to the primary antibody. Then, the plate was washed five times with PBS buffer (Pierce, at Rockford, Ill., USA), and 100 μL of the biotinylated amino acid dimer solution (amino acid dimer, dissolved in PBS to a concentration of 100 μM) was added to allow reaction for 1 hr. Each well was washed five times with PBS buffer, and 200 μL of streptavidin-HRP solution (diluted by 1:10,000, Pierce, at Rockford, Ill., USA) was added to allow reaction over 1 hr. After the reaction was completed, the plate was washed three times with PBS buffer, 100 μL of TMB substrate solution (KPL, USA) was added to allow reaction for 10-minute under a dark condition. Then, 50 μL of 15% hydrochloric acid was added to stop the reaction, and the absorbance of the reaction mixture at 450 nm was measured using a microplate reader (Bio-RAD, iMark).
On the technique in general: ELISA stands for enzyme-linked immunosorbent assay.
On to Biotin-Ala-Arg [Dimer 1], for which the “difference of absorbance between Aβ40 and Aβ42” value (from here on “difference”) is “very significant”. The same measure for Biotin-Arg-Ile [Dimer 3]: “very significant”. For the substance Biotin-Arg-Leu [Dimer 5], the “difference” value is “very significant”.

For the substance Biotin-Cys-Ser [Dimer 13], the “difference” value was “very significant”.
